# Laboratory results taken from patent US20160130278A1 (TAISHO PHARMACEUTICAL CO., LTD, priority 2013, published 2016).
# Target: T1, human type 1 glycine transporter (GlyT1) (Homo sapiens, UniProt P48067)
# T1 construct: T98G cells (glioma cells) expressing human type 1 glycine transporter (GlyT1) were used
# T1 sequence (P48067 1-706): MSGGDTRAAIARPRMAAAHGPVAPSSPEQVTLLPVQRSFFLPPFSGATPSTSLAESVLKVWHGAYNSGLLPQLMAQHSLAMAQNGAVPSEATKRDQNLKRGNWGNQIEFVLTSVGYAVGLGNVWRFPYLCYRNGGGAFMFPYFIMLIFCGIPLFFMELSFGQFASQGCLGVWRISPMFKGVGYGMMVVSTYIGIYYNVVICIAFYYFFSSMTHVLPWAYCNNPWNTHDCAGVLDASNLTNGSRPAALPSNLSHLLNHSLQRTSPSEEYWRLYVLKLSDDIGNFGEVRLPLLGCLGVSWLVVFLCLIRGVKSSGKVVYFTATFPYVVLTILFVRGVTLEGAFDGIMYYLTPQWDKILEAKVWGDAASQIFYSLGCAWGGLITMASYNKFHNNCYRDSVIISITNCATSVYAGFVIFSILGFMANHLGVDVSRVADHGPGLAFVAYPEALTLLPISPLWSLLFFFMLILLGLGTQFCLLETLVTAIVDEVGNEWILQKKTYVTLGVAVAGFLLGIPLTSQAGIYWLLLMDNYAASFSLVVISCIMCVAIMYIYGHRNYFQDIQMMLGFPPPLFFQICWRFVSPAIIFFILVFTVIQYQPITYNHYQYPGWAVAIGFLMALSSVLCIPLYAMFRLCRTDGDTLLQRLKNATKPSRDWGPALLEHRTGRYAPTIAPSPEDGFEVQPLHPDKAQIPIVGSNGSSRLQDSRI
# Experiment: Glycine uptake inhibition experiment ([3H]glycine uptake)
# Assay type: cell-based
# Conditions: GlyT1
# Method in brief: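 T98G glioma cells expressing human GlyT1 were pretreated 10 min with compound in HEPES buffer pH 7.4 (0.2% BSA), then incubated with compound plus 250 nM final [3H]glycine for 15 min at room temperature. Intracellular radioactivity was counted after NaOH lysis; 10 μM ALX5407 defined non-specific uptake. IC50 came from 10^−9–10^−5 M curves.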
row,IC50,SMILES
1,250 nM,"O=C(NC(c1cccc(Cl)n1)C1(O)CCC(F)(F)CC1)c1ccc(C(F)(F)F)nc1Cl (single isomer, unassigned) [Compound 356, 2-chloro-N-[(6-chloropyridin-2-yl)(4,4-difluoro-1-hydroxycyclohexyl)methyl]-6-(trifluoromethyl)pyridine-3-carboxamide]"
2,330 nM,"O=C(NC(c1cccnc1Cl)C1(O)CCC(F)(F)CC1)c1cccc(C(F)(F)F)c1Cl (single isomer, unassigned) [Compound 357, 2-chloro-N-[(2-chloropyridin-3-yl)(4,4-difluoro-1-hydroxycyclohexyl)methyl]-3-(trifluoromethyl)benzamide]"
3,240 nM,"Cc1cccc(C(NC(=O)c2nccc(C(F)(F)F)c2Cl)C2(O)CCCC2)c1 (single isomer, unassigned) [Compound 56, 3-chloro-N-[(1-hydroxycyclopentyl)(3-methylphenyl)methyl]-4-(trifluoromethyl)pyridine-2-carboxamide]"
4,1100 nM,"O=C(NC(c1cccc(F)c1Cl)[C@]1(O)CC[C@@H](F)CC1)c1c(F)cccc1Cl (single isomer, unassigned) [Compound 301, 2-chloro-N-[(2-chloro-3-fluorophenyl)(cis-4-fluoro-1-hydroxycyclohexyl)methyl]-6-fluorobenzamide]"
5,220 nM,"O=C(NC(c1cccc(Cl)n1)C1(O)CCC(F)(F)CC1)c1cc(C(F)(F)F)cnc1Cl (single isomer, unassigned) [Compound 354, 2-chloro-N-[(6-chloropyridin-2-yl)(4,4-difluoro-1-hydroxycyclohexyl)methyl]-5-(trifluoromethyl)pyridine-3-carboxamide]"
6,3300 nM,"CCn1cc(-c2cccc(C(NC(=O)c3ccc(C(F)(F)F)nc3C)C3(O)CCC(F)(F)CC3)c2)cn1 (stereo not shown) [Compound 140, N-{(4,4-difluoro-1-hydroxycyclohexyl)[3-(1-ethyl-1H-pyrazol-4-yl)phenyl]methyl}-2-methyl-6-(trifluoromethyl)pyridine-3-carboxamide]"
7,830 nM,"CCn1cc(-c2cccc(C(NC(=O)c3cc(Cl)ccc3Cl)C3(O)CCC(F)(F)CC3)c2)cn1 (single isomer, unassigned) [Compound 193, 2,5-dichloro-N-{(4,4-difluroo-1-hydroxycyclohexyl)[3-(1-ethyl-1H-pyrazol-4-yl)phenyl]methyl}benzamide]"
8,400 nM,"N#Cc1cccc(C(NC(=O)c2cccc(C(F)(F)F)c2Cl)C2(O)CCCC2)c1 (stereo not shown) [Compound 8, 2-chloro-N-[(3-cyanophenyl)(1-hydroxycyclopentyl)methyl]-3-(trifluoromethyl)benzamide]"
9,1100 nM,"CCn1cc(-c2cccc(C(NC(=O)c3cccc4ccccc34)C3(O)CCC(F)(F)CC3)c2)cn1 (single isomer, unassigned) [Compound 195, N-{(4,4-difluoro-1-hydroxycyclohexyl)[3-(1-ethyl-1H-pyrazol-4-yl)phenyl]methyl}naphthalene-1-carboxamide]"
10,240 nM,"O=C(NC(c1ncccc1Cl)C1(O)CCC(F)(F)CC1)c1nccc(C(F)(F)F)c1Cl (single isomer, unassigned) [Compound 318, 3-chloro-N-[(3-chloropyridin-2-yl)(4,4-difluoro-1-hydroxycyclohexyl)methyl]-4-(trifluoromethyl)pyridine-2-carboxamide]"
11,1300 nM,"CCn1cc(-c2cccc(C(NC(=O)c3cccc(Cl)c3C(F)(F)F)C3(O)CCC(F)(F)CC3)c2)cn1 (stereo not shown) [Compound 208, 3-chloro-N-{(4,4-difluoro-1-hydroxycyclohexyl)[3-(1-ethyl-1H-pyrazol-4-yl)phenyl]methyl}-2-(trifluoromethyl)benzamide]"
12,1500 nM,"O=C(NC(c1cccc(F)c1Cl)[C@]1(O)CC[C@@H](F)CC1)c1cc(O)ccc1Cl (single isomer, unassigned) [Compound 297, 2-chloro-N-[(2-chloro-3-fluorophenyl)(cis-4-fluoro-1-hydroxycyclohexyl)methyl]-5-hydroxybenzamide]"
13,100 nM,"O=C(NC(c1cccc(F)c1)C1(O)CCCC1)c1nccc(C(F)(F)F)c1Cl (single isomer, unassigned) [Compound 52, 3-chloro-N-[(3-fluorophenyl)(1-hydroxycyclopentyl)methyl]-4-(trifluoromethyl)pyridine-2-carboxamide]"
14,580 nM,"CCn1cc(-c2cccc(C(NC(=O)c3cc(Cl)ccc3C(F)(F)F)C3(O)CCC(F)(F)CC3)c2)cn1 (single isomer, unassigned) [Compound 217, 5-chloro-N-{(4,4-difluoro-1-hydroxycyclohexyl)[3-(1-ethyl-1H-pyrazol-4-yl)phenyl]methyl}-2-(trifluoromethyl)benzamide]"
15,3100 nM,"CCn1cc(-c2cccc(C(NC(=O)c3nccnc3Cl)C3(O)CCC(F)(F)CC3)c2)cn1 (stereo not shown) [Compound 141, 3-chloro-N-{(4,4-difluoro-1-hydroxycyclohexyl)[3-(1-ethyl-1H-pyrazol-4-yl)phenyl]methyl}pyradine-2-carboxamide]"
16,4600 nM,"CCn1cc(-c2cccc(C(NC(=O)c3ncccc3Cl)C3(O)CCCC3)c2)cn1 (stereo not shown) [Compound 21, 3-chloro-N-{[3-(1-ethyl-1H-pyrazol-4-yl)phenyl](1-hydroxycyclopentyl)methyl}pyridine-2-carboxamide]"
17,1900 nM,"O=C(NC(c1cccc(F)c1Cl)[C@]1(O)CC[C@@H](F)CC1)c1cnccc1Cl (single isomer, unassigned) [Compound 250, 4-chloro-N-[(2-chloro-3-fluorophenyl)(cis-4-fluoro-1-hydroxycyclohexyl)methyl]pyridine-3-carboxamide]"
18,65 nM,"O=C(NC(c1cc(Cl)ccc1Cl)C1(O)CCCC1)c1nccc(C(F)(F)F)c1Cl (single isomer, unassigned) [Compound 114, 3-chloro-N-[(2,5-dichlorophenyl)(1-hydroxycyclopentyl)methyl]-4-(trifluoromethyl)pyridine-2-carboxamide]"
19,610 nM,"CCn1cc(-c2cccc(C(NC(=O)c3cc(C(F)(F)F)ccc3C)C3(O)CCC(F)(F)CC3)c2)cn1 (stereo not shown) [Compound 179, N-{(4,4-difluoro-1-hydroxycyclohexyl)[3-(1-ethyl-1H-pyrazol-4-yl)phenyl]methyl}-2-methyl-5-(trifluoromethyl)benzamide]"
20,1300 nM,"CCn1cc(-c2cccc(C(NC(=O)c3ccc(Cl)cc3Cl)C3(O)CCC(F)(F)CC3)c2)cn1 (stereo not shown) [Compound 191, 2,4-dichloro-N-{(4,4-difluoro-1-hydroxycyclohexyl)[3-(1-ethyl-1H-pyrazol-4-yl)phenyl]methyl}benzamide]"
21,530 nM,"CS(=O)(=O)c1ccc(Cl)cc1C(=O)NC(c1cccc(F)c1Cl)[C@]1(O)CC[C@@H](F)CC1 (single isomer, unassigned) [Compound 364, 5-chloro-N-[(2-chloro-3-fluorophenyl)(cis-4-fluoro-1-hydroxycyclohexyl)methyl]-2-(methylsulfonyl)benzamide]"
22,2600 nM,"O=C(NC(c1cccc(OC(F)(F)F)c1)C1(O)CCCC1)c1nccc(C(F)(F)F)c1Cl (stereo not shown) [Compound 84, 3-chloro-N-{(1-hydroxycyclopentyl)[3-(trifluoromethoxy)phenyl]methyl}-4-(trifluoromethyl)pyridine-2-carboxamide]"
